Columns and labels:
Experiment in all cases: Herbicidal activity, pot culture method (primary and secondary screening test)
Format in all cases: in vivo
Settings in all cases: primary screening, pot culture, 150 g/ha, sprayed at 3-leaf stage, result 15 days later
abutilon theophrasti = test system: abutilon theophrasti
Source text: (§1) This test example is for describing the herbicidal activity inhibition ratio (%) (the dose is 150 g/ha) of the compound with a structure shown in Formula (I). Primary screening test (pot culture method): The test targets are abutilon theophrasti, digitaria sanguinalis, amaranthus retroflexus, echinochloa crusgalli, eclipta prostrata and setaria viridis. Take flowerpots with an inner diameter of 6 cm, put composite soil (vegetable garden soil:seedling matrix=1:2, v/v) into them till 3⁄4 of flowerpot height, directly sow the above six weed targets (budding rate>85%), cover them with 0.2 cm thick soil, and keep them for future use when the weeds grow to 3-leaf stage. Each compound is dissolved in N,N-dimethylformamide at a dose of 150 g/ha and diluted with distilled water into a 0.2 g/L solution. The solution is sprayed through an automatic spray tower. After the solution on weed leaves is aired dry, the flowerpots are moved into a greenhouse for cultivation. The result is investigated 15 days later. By the same method adopted in primary screening test, a secondary screening test is done on some typical compounds, such as: 5, 6, 20, 21, 23, 34, 47, 65, 66, 70 and 91 at a reduced dose, and the test result is compared with mesotrione which is commercially available and has a good herbicidal effect. The test method is same as that adopted in primary screening test. Mesotrione is bought from Hubei […] Chemical Co., Ltd.

amaranthus retroflexus = test system: amaranthus retroflexus
Source text: as §1

digitaria sanguinalis = test system: digitaria sanguinalis
Source text: as §1

echinochloa crusgalli = test system: echinochloa crusgalli
Source text: as §1

eclipta prostrata = test system: eclipta prostrata
Source text: as §1

setaria viridis = test system: setaria viridis
Source text: as §1

| Structure (SMILES) | herbicidal activity inhibition ratio (%), Abutilon theophrasti (abutilon theophrasti) [%] | herbicidal activity inhibition ratio (%), Amaranthus retroflexus (amaranthus retroflexus) [%] | herbicidal activity inhibition ratio (%), Digitaria sanguinalis (digitaria sanguinalis) [%] | herbicidal activity inhibition ratio (%), Echinochloa crusgalli (echinochloa crusgalli) [%] | herbicidal activity inhibition ratio (%), Eclipta prostrata (eclipta prostrata) [%] | herbicidal activity inhibition ratio (%), Setaria viridis (setaria viridis) [%] |
| --- | --- | --- | --- | --- | --- | --- |
| CCn1c(=O)n(-c2ccc(Cl)cc2)c(=O)c2cc(C(=O)C3=C(O)CCCC3=O)ccc21 [Compound 43] | 65 | 98 | 60 | 80 | 83 | 50 |
| Cn1c(=O)n(-c2cccc3ccccc23)c(=O)c2cc(C(=O)C3=C(O)CCCC3=O)ccc21 [Compound 44] | 85 | 100 | 75 | 65 | 0 | 60 |
| Cn1c(=O)n(-c2ccc([N+](=O)[O-])cc2)c(=O)c2cc(C(=O)C3=C(O)CCCC3=O)ccc21 [Compound 45] | 60 | 90 | 40 | 50 | 83 | 10 |
| CC(C)c1cccc(C(C)C)c1-n1c(=O)c2cc(C(=O)C3=C(O)CCCC3=O)ccc2n(C)c1=O [Compound 46] | 35 | 100 | 55 | 60 | 70 | 20 |
| COc1ccccc1-n1c(=O)c2cc(C(=O)C3=C(O)CC(C)(C)CC3=O)ccc2n(C)c1=O [Compound 48] | 50 | 95 | 85 | 85 | 85 | 50 |
| Cn1c(=O)n(-c2ccc(OC(F)(F)F)cc2)c(=O)c2cc(C(=O)C3=C(O)CC(C)(C)CC3=O)ccc21 [Compound 49] | 100 | 95 | 90 | 65 | 80 | 50 |
| Cn1c(=O)n(-c2ccc(OC(F)(F)F)cc2)c(=O)c2cc(C(=O)C3=C(O)CCCC3=O)ccc21 [Compound 50] | 50 | 95 | 60 | 78 | 80 | 50 |
| Cn1c(=O)n(-c2cccc(C(F)(F)F)c2)c(=O)c2cc(C(=O)C3=C(O)CC(C)(C)CC3=O)ccc21 [Compound 51] | 93 | 90 | 83 | 50 | 80 | 40 |
| Cn1c(=O)n(-c2cccc(C(F)(F)F)c2)c(=O)c2cc(C(=O)C3=C(O)CCCC3=O)ccc21 [Compound 52] | 55 | 98 | 50 | 85 | 75 | 80 |
| Cn1c(=O)n(-c2ccc([N+](=O)[O-])cc2)c(=O)c2cc(C(=O)C3=C(O)CC(C)(C)CC3=O)ccc21 [Compound 53] | 100 | 80 | 25 | 0 | 80 | 80 |
| Cc1cccc(C)c1-n1c(=O)c2cc(C(=O)C3=C(O)C(C)(C)CCC3=O)ccc2n(C)c1=O [Compound 54] | 100 | 98 | 60 | 95 | 80 | 45 |
| COc1cccc(-n2c(=O)c3cc(C(=O)C4=C(O)CCCC4=O)ccc3n(C)c2=O)c1 [Compound 55] | 100 | 95 | 60 | 93 | 68 | 25 |
| COc1cccc(-n2c(=O)c3cc(C(=O)C4=C(O)CC(C)(C)CC4=O)ccc3n(C)c2=O)c1 [Compound 56] | 55 | 80 | 55 | 60 | 75 | 60 |
| COc1ccc(-n2c(=O)c3cc(C(=O)C4=C(O)CCCC4=O)ccc3n(C)c2=O)cc1 [Compound 57] | 60 | 95 | 75 | 85 | 80 | 50 |
| COc1ccc(-n2c(=O)c3cc(C(=O)C4=C(O)CC(C)(C)CC4=O)ccc3n(C)c2=O)cc1 [Compound 58] | 100 | 90 | 88 | 80 | 68 | 60 |
| Cc1ccccc1-n1c(=O)[nH]c2ccc(C(=O)C3=C(O)CC(C)(C)CC3=O)cc2c1=O [Compound 59] | 0 | 30 | 0 | 0 | 25 | 10 |
| Cn1c(=O)n(-c2cc(C(F)(F)F)ccc2Cl)c(=O)c2cc(C(=O)C3=C(O)CCCC3=O)ccc21 [Compound 60] | 100 | 70 | 40 | 65 | 0 | 80 |
| Cn1c(=O)n(-c2cc(C(F)(F)F)ccc2Cl)c(=O)c2cc(C(=O)C3=C(O)CC(C)(C)CC3=O)ccc21 [Compound 61] | 65 | 0 | 25 | 0 | 20 | 10 |

Reference: patent US9771334B2, “Triketone compound and preparation method and use thereof” (SHANDONG CYNDA CHEMICAL CO., LTD., priority 2013, dated 2017)
